Data as given in patent publication US10617709B2, “miRNAs as novel therapeutic adjuvants and biomarkers for the prognosis and treatment of drug resistant breast cancers” (THE BOARD OF REGENTS OF THE UNIVERSITY OF TEXAS SYSTEM, priority 2012, dated 2020).

Tested on: Tumor explants from TNBC patients
Assay: Ex-vivo tumor explant model, Ki67 IHC
Design: species or system human
Conditions: for Ki67 levels: paclitaxel 1 μM, 48 hours
Method: To further establish the efficacy of these miRNAs in treating TNBC, we used ex-vivo tumor explant model. Freshly excised breast cancer tissues were dissected into 1 mm^3 specimens, placed on hydrated gelatin sponge in explant media supplemented with hydrocortisone and insulin at 37° C. in the CO2 incubator. Tumor explants from TNBC patients were treated with paclitaxel and tissues were gently removed, fixed in 10% neutral buffered formalin and processed for paraffin blocks. IHC analyses were conducted to determine the Ki67 levels. IHC of surgical specimens and explants reveal that explants retain the tissue architecture and proliferation properties of the original surgical specimen. […] FIG. 15.
Tumor explants growing on the gelatin sponge were treated with either sensitizer miRNA (75 nM) alone or paclitaxel (1 μM) alone or with miRNA (75 nM) and paclitaxel (1 μM) together. […] FIG. 16.

`CC(=O)O[C@H]1C(=O)[C@@]2(C)[C@H]([C@H](OC(=O)c3ccccc3)[C@]3(O)C[C@H](OC(=O)[C@H](O)[C@@H](NC(=O)c4ccccc4)c4ccccc4)C(C)=C1C3(C)C)[C@]1(OC(C)=O)CO[C@@H]1C[C@@H]2O` [paclitaxel] was tested, and the “response to paclitaxel (Ki67 staining)” value (advanced stage TNBC explant) was “not responsive”, the Ki67 staining (non-relapsed TNBC explant) was “inhibition of Ki67 staining” and the Ki67 levels (relapsed / advanced stage TNBC explants, sensitizer miRNA 75 nM) was “did not result in significant change”. The Ki67 levels (responsive TNBC (early stage cancer) explants) was “significant inhibition of Ki67 levels”.
